Measured values: patent US6914045B2, “Glycopeptide antibiotics” (Wyeth Holdings Corporation, priority 2001, dated 2005)
≈ marks a conversion by molar mass, not a printed value.

Assays:
Experiment in all cases: in vitro antibacterial evaluation, MIC by broth dilution
Format in all cases: cell-based
[1] = tested on: Enterococcus sp.; settings: broth dilution, 18 hours at 35° C.
Method in brief: (§1)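 Broth dilution per NCCLS M7-A2 in Mueller-Hinton II medium, inoculum 5×10^5 CFU/mL, antibiotic range 64-0.06 μg/mL. MIC taken as lowest concentration inhibiting growth; Gram-positive panel includes recent clinical isolates resistant to methicillin, penicillin and/or vancomycin.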

[2] = tested on: Staphylococcus sp.; settings: broth dilution, 18 hours at 35° C.
Method in brief: as §1

[3] = tested on: Streptococcus sp.; settings: broth dilution, 18 hours at 35° C.
Method in brief: as §1

[4] = tested on: Escherichia coli; settings: 18 hours at 35° C.

What does the source list for CC(c1ccccc1)C1NC(=O)CNC(=O)C(CO)NC(=O)C(C(O)C2CNC(=N)N2C2OC(CO)C(O)C(O)C2O)NC(=O)C(C(O)C2CNC(=N)N2)NC(=O)C(Cc2ccc(OC3OC(CO)C(OC4OC5COC6(OC5C(O)C4O)C4CCCC6CCC4)C(O)C3O)cc2)NC1=O (stereo not shown) [Example 212]?
MIC Enterococcus avium (GC 4558) [1]: 4 µg/mL (≈ 2.83 µM); MIC Enterococcus faecalis (ATCC 29212) [1]: 8 µg/mL (≈ 5.65 µM); MIC Enterococcus faecalis (GC 2242) [1]: 8 µg/mL (≈ 5.65 µM); MIC Enterococcus faecalis (GC 2691) [1]: 8 µg/mL (≈ 5.65 µM); MIC Enterococcus faecalis (GC 3059) [1]: 8 µg/mL (≈ 5.65 µM); MIC Enterococcus faecalis (GC 4552) [1]: 8 µg/mL (≈ 5.65 µM); MIC Enterococcus faecalis (GC 4553) [1]: 8 µg/mL (≈ 5.65 µM); MIC Enterococcus faecalis (GC 4554) [1]: 8 µg/mL (≈ 5.65 µM); MIC Enterococcus faecalis (GC 6189) [1]: 8 µg/mL (≈ 5.65 µM); MIC Enterococcus faecium (GC 2243) [1]: 8 µg/mL (≈ 5.65 µM); MIC Enterococcus faecium (GC 4556) [1]: 8 µg/mL (≈ 5.65 µM); MIC Enterococcus faecium (GC 4557) [1]: 4 µg/mL (≈ 2.83 µM); MIC Enterococcus faecalis (ATCC 29212) ([1]; inoculum 5×10^5 CFU/mL, strain ATCC 29212): 8 µg/mL (≈ 5.65 µM); MIC Enterococcus faecalis (GC 2242) ([1]; inoculum 5×10^5 CFU/mL, strain GC 2242): 8 µg/mL (≈ 5.65 µM); MIC Enterococcus faecium (GC 2243) ([1]; inoculum 5×10^5 CFU/mL, strain GC 2243): 8 µg/mL (≈ 5.65 µM); MIC Enterococcus faecalis (GC 2691) ([1]; inoculum 5×10^5 CFU/mL, strain GC 2691): 8 µg/mL (≈ 5.65 µM); MIC Enterococcus faecalis (GC 3059) ([1]; inoculum 5×10^5 CFU/mL, strain GC 3059): 8 µg/mL (≈ 5.65 µM); MIC Enterococcus faecalis (GC 4552) ([1]; inoculum 5×10^5 CFU/mL, strain GC 4552): 8 µg/mL (≈ 5.65 µM); MIC Enterococcus faecalis (GC 4553) ([1]; inoculum 5×10^5 CFU/mL, strain GC 4553): 8 µg/mL (≈ 5.65 µM); MIC Enterococcus faecalis (GC 4554) ([1]; inoculum 5×10^5 CFU/mL, strain GC 4554): 8 µg/mL (≈ 5.65 µM); MIC Enterococcus faecium (GC 4556) ([1]; inoculum 5×10^5 CFU/mL, strain GC 4556): 8 µg/mL (≈ 5.65 µM); MIC Enterococcus faecium (GC 4557) ([1]; inoculum 5×10^5 CFU/mL, strain GC 4557): 4 µg/mL (≈ 2.83 µM); MIC Enterococcus avium (GC 4558) ([1]; inoculum 5×10^5 CFU/mL, strain GC 4558): 4 µg/mL (≈ 2.83 µM); MIC Enterococcus faecalis (GC 6189) ([1]; inoculum 5×10^5 CFU/mL, strain GC 6189): 8 µg/mL (≈ 5.65 µM); MIC Staphylococcus aureus (ATCC 29213) ([2]; strain ATCC 29213): 2 µg/mL (≈ 1.41 µM); MIC Staphylococcus aureus (GC 1131) ([2]; strain GC 1131): 4 µg/mL (≈ 2.83 µM); MIC Staphylococcus aureus (GC 3051) ([2]; strain GC 3051): 2 µg/mL (≈ 1.41 µM); MIC Staphylococcus aureus (GC 3053) ([2]; strain GC 3053): 4 µg/mL (≈ 2.83 µM); MIC Staphylococcus aureus (GC 4541) ([2]; strain GC 4541): 2 µg/mL (≈ 1.41 µM); MIC Staphylococcus aureus (GC 4542) ([2]; strain GC 4542): 2 µg/mL (≈ 1.41 µM); MIC Staphylococcus aureus-SMITH (GC 4543) ([2]; strain GC 4543): 2 µg/mL (≈ 1.41 µM); MIC Staphylococcus aureus (GC 4544) ([2]; strain GC 4544): 4 µg/mL (≈ 2.83 µM); MIC Staphylococcus aureus (GC 4545) ([2]; strain GC 4545): 2 µg/mL (≈ 1.41 µM); MIC Staphylococcus haemolyticus (GC 4546) ([2]; strain GC 4546): 2 µg/mL (≈ 1.41 µM); MIC Coagulase Negative Staphylococcus (GC 4547) ([2]; strain GC 4547): 2 µg/mL (≈ 1.41 µM); MIC Coagulase Negative Staphylococcus (GC 4548) ([2]; strain GC 4548): 2 µg/mL (≈ 1.41 µM); MIC Coagulase Negative Staphylococcus (GC 4549) ([2]; strain GC 4549): 2 µg/mL (≈ 1.41 µM); MIC Coagulase Negative Staphylococcus (GC 4551) ([2]; strain GC 4551): 2 µg/mL (≈ 1.41 µM); MIC Coagulase Negative Staphylococcus (GC 6257) ([2]; strain GC 6257): 1 µg/mL (≈ 0.706 µM); MIC Streptococcus agalactiae (GC 4564) [3]: 1 µg/mL (≈ 0.706 µM); MIC Streptococcus pneumoniae (ATCC 6301) [3]: 0.5 µg/mL (≈ 0.353 µM); MIC Streptococcus pneumoniae (GC 1894) [3]: <0.06 µg/mL; MIC Streptococcus pneumoniae (GC 4565) [3]: 0.25 µg/mL (≈ 0.177 µM); MIC Streptococcus pyogenes (GC 4563) [3]: 1 µg/mL (≈ 0.706 µM); MIC Streptococcus pneumoniae (ATCC 6301) ([3]; inoculum 5×10^5 CFU/mL, strain ATCC 6301): 0.5 µg/mL (≈ 0.353 µM); MIC Streptococcus pneumoniae (GC 1894) ([3]; inoculum 5×10^5 CFU/mL, strain GC 1894): <0.06 µg/mL; MIC Streptococcus pyogenes (GC 4563) ([3]; inoculum 5×10^5 CFU/mL, strain GC 4563): 1 µg/mL (≈ 0.706 µM); MIC Streptococcus agalactiae (GC 4564) ([3]; inoculum 5×10^5 CFU/mL, strain GC 4564): 1 µg/mL (≈ 0.706 µM); MIC Streptococcus pneumoniae (GC 4565) ([3]; inoculum 5×10^5 CFU/mL, strain GC 4565): 0.25 µg/mL (≈ 0.177 µM); MIC Escherichia coli (ATCC 25922) [4]: 32 µg/mL (≈ 22.6 µM); MIC Escherichia coli (GC 4559) [4]: 32 µg/mL (≈ 22.6 µM); MIC Escherichia coli (GC 4560) [4]: 2 µg/mL (≈ 1.41 µM)
